{"source": "patent US4045298A", "about": "“Antibiotic XK-62-2 and process for production thereof” (priority 1972, dated 1977)", "key": {"[1]": {"tested_on": "Proteus vulgaris ATCC 6897", "assay": "Minimum inhibitory concentration by agar dilution method", "type": "cell-based", "details": "ATCC6897, agar dilution", "text": "Antibacterial spectra of XK-62-2 by agar\n(§1) The comparative in vitro activities of these antibiotics against various microorganisms of the genus Proteus are shown in the following Table 6.\n(§2) Minimum inhibitory concentration\n(§3) (γ/ml : by agar dilution method)"}, "[2]": {"tested_on": "Pseudomonas aeruginosa KY 8515", "assay": "Minimum inhibitory concentration by agar dilution method", "type": "cell-based", "details": "KY8515, clinical isolate, Table 7", "text": "as §2, §3"}, "[3]": {"tested_on": "Pseudomonas aeruginosa KY 8512", "assay": "Minimum inhibitory concentration by agar dilution method", "type": "cell-based", "details": "KY8512, clinical isolate, Table 7", "text": "as §2, §3"}, "[4]": {"tested_on": "Pseudomonas aeruginosa KY 8511", "assay": "Minimum inhibitory concentration by agar dilution method", "type": "cell-based", "details": "KY8511, clinical isolate, Table 7", "text": "as §2, §3"}, "[5]": {"tested_on": "Pseudomonas aeruginosa KY 4276", "assay": "Minimum inhibitory concentration by agar dilution method", "type": "cell-based", "details": "KY4276, clinical isolate, Table 7", "text": "as §2, §3"}, "[6]": {"tested_on": "Pseudomonas aeruginosa KY 8516", "assay": "Minimum inhibitory concentration by agar dilution method", "type": "cell-based", "text": "as §2, §3"}, "[7]": {"tested_on": "Pseudomonas aeruginosa KY 8510", "assay": "In vivo protection of mice against bacterial infection", "details": "subcutaneous, inoculum 6.6×10^7 cells/mouse intraperitoneal", "experimental": "In addition, the in vivo activity of XK-62-2 against pathogenic bacterial infections in mice is tested. […] They are then treated with various doses of the test antibiotic by subcutaneous injection."}, "[8]": {"tested_on": "Gram-positive and Gram-negative bacteria", "assay": "Antibacterial activity against Gram-positive and Gram-negative bacteria (summary)", "type": "cell-based"}, "[9]": {"tested_on": "Pseudomonas aeruginosa BMH No. 1", "assay": "In vivo protection of mice against bacterial infection", "details": "subcutaneous, inoculum 3.8×10^8 cells/mouse intraperitoneal", "experimental": "In addition, the in vivo activity of XK-62-2 against pathogenic bacterial infections in mice is tested. The mice are infected with an inoculum of 3.8× 10^8 cells/mouse of Pseudomonas aeruginosa BMH No. 1 or 6.6× 10^7 cells/mouse of Pseudomonas aeruginosa KY 8510 by intraperitoneal injection. They are then treated with various doses of the test antibiotic by subcutaneous injection. The effect of XK-62-2 on the protection of the bacterial infections is shown in the following Table 8 wherein ten mice are used in each test."}, "[10]": {"tested_on": "Proteus mirabilis No. 825", "assay": "Minimum inhibitory concentration by agar dilution method", "type": "cell-based", "details": "NO.825, agar dilution, Table 6, read-out: Minimum inhibitory concentration", "text": "as §1, §2, §3"}, "[11]": {"tested_on": "Proteus rettgeri Hambrook", "assay": "Minimum inhibitory concentration by agar dilution method", "type": "cell-based", "details": "Providencia rettgeri; agar dilution; Table 6; read-out: Minimum inhibitory concentration", "text": "as §1, §2, §3"}, "Proteus mirabilis No. 39": {"tested_on": "Proteus mirabilis No. 39", "assay": "Minimum inhibitory concentration by agar dilution method", "type": "cell-based", "details": "NO.39, agar dilution, Table 6, read-out: Minimum inhibitory concentration", "text": "as §1, §2, §3"}, "Proteus vulgaris KY 4296": {"tested_on": "Proteus vulgaris KY 4296", "assay": "Minimum inhibitory concentration by agar dilution method", "type": "cell-based", "details": "KY4296, Table 6", "text": "as §1, §2, §3"}, "Proteus morganii Jenkins": {"tested_on": "Proteus morganii Jenkins", "assay": "Minimum inhibitory concentration by agar dilution method", "type": "cell-based", "details": "Morganella morganii; agar dilution; Table 6; read-out: Minimum inhibitory concentration", "text": "as §1, §2, §3"}, "[12]": {"tested_on": "Proteus vulgaris Abbott JJ", "assay": "Minimum inhibitory concentration by agar dilution method", "type": "cell-based", "details": "agar dilution, Table 6, read-out: Minimum inhibitory concentration", "text": "as §1, §2, §3"}, "Proteus vulgaris KY 4297": {"tested_on": "Proteus vulgaris KY 4297", "assay": "Minimum inhibitory concentration by agar dilution method", "type": "cell-based", "details": "KY4297, Table 6", "text": "as §1, §2, §3"}, "[13]": {"tested_on": "Proteus mirabilis Finland 9", "assay": "Minimum inhibitory concentration by agar dilution method", "type": "cell-based", "details": "FINLAND9, agar dilution, Table 6, read-out: Minimum inhibitory concentration", "text": "as §1, §2, §3"}, "Proteus rettgeri Booth": {"tested_on": "Proteus rettgeri Booth", "assay": "Minimum inhibitory concentration by agar dilution method", "type": "cell-based", "details": "Providencia rettgeri; agar dilution; Table 6; read-out: Minimum inhibitory concentration", "text": "as §1, §2, §3"}, "[14]": {"tested_on": "Bacillus subtilis No. 10707", "assay": "Activity (unit/mg) of isolated preparations; paper disk method using an agar plate", "type": "cell-based", "experimental": "(§4) After the completion of fermentation, the culture liquor is adjusted to a pH of 2.0 with 12N sulfuric acid and stirred for 30 minutes. Then, about 10 kg of a filter aid, Radiolite No. 600 (product of Showa Kagaku Kogyo Co., Ltd., Japan) is added thereto and the microbial cells are removed by filtration. The filtrate is adjusted to a pH of 8.0 with 6N sodium hydroxide and passed through a column packed with about 50 l of a cation exchange resin, Amberlite IRC-50 (ammonia form). The active substance is adsorbed on the resin and the eluate is discarded. After washing the resin with water, the active substance is eluted out with 1N aqueous ammonia.\nActive fractions are combined and concentrated in vacuo to about 5 l. The concentrate is then adjusted to a pH of 8.0 with 6N sulfuric acid and passed through a column packed with 1 l of an anion exchange resin, Dowex 1×2 (OH^- form). The column is washed with about 5 l of water and the effluent and the washings containing active substance are combined and are concentrated to 1/15 by volume. […] The resultant precipitate is removed by filtration and the filtrate is concentrated to 500 ml. The concentrate is adjusted to a pH of 4.5 with 6N sulfuric acid and 2.5 l of methanol is added thereto. […] The precipitate is separated by filtration and washed with methanol.\nas §4, with “of” for “of a filter aid,”, “(trade name)” for “(product of Showa Kagaku Kogyo Co., Ltd., Japan)”, “The” for “The active substance is adsorbed on the resin and the”"}, "[15]": {"tested_on": "specific enzyme system which inactivates gentamicin C1a or kanamycin by acetylating", "type": "biochemical, Pseudomonas aeruginosa"}}, "note": "Like-named read-outs stand apart in the source and are kept apart here.", "data": [{"smiles": "CNC[C@@H]1CC[C@@H](N)[C@@H](O[C@H]2[C@H](O)[C@@H](O[C@H]3OC[C@](C)(O)[C@H](NC)[C@H]3O)[C@H](N)C[C@@H]2N)O1", "note": "[XK-62-2]", "values": [{"measurement": "MIC", "setting": "[1]; Table 5, read-out: Minimum inhibitory concentration", "result": 0.03, "unit": "µg/mL"}, {"measurement": "MIC", "setting": "[1]; Table 6, read-out: Minimum inhibitory concentration", "result": 0.04, "unit": "µg/mL"}, {"measurement": "MIC", "setting": "[2]", "result": "> 42", "unit": "µg/mL"}, {"measurement": "MIC", "setting": "[3]", "result": 0.33, "unit": "µg/mL"}, {"measurement": "MIC", "setting": "[4]", "result": "> 42", "unit": "µg/mL"}, {"measurement": "MIC", "setting": "[5]", "result": 0.33, "unit": "µg/mL"}, {"measurement": "Susceptibility of strain", "setting": "[6]; KY 8516", "result": "sensitive"}, {"measurement": "MIC", "setting": "[6]; Pseudomonas aeruginosa, KY8516, agar dilution, clinical isolate, Table 7", "result": 0.33, "unit": "µg/mL"}, {"measurement": "Antibacterial activity relative to gentamicin complex or gentamicin C1a", "setting": "[6]; vs gentamicin complex or gentamicin C1a", "result": "much higher antibacterial activity"}, {"measurement": "Survival of mice", "setting": "[7]; 0.125 mg/mouse", "result": 0, "unit": "%"}, {"measurement": "Survival of mice", "setting": "[7]; 0.25 mg/mouse", "result": 30, "unit": "%"}, {"measurement": "Survival of mice", "setting": "[7]; 0.5 mg/mouse", "result": 50, "unit": "%"}, {"measurement": "Survival of mice", "setting": "[7]; 1 mg/mouse", "result": 80, "unit": "%"}, {"measurement": "Survival of mice", "setting": "[7]; 2 mg/mouse", "result": 100, "unit": "%"}, {"measurement": "Antibacterial activity", "setting": "[8]; both in vitro and in vivo, broad range of Gram-positive and Gram-negative bacteria", "result": "very strong antibacterial activity"}, {"measurement": "In vitro activity relative to gentamicin", "setting": "[8]; in vitro, vs gentamicin", "result": "comparable"}, {"measurement": "In vitro activity relative to streptomycin and kanamycin", "setting": "[8]; in vitro, vs streptomycin and kanamycin", "result": "far superior"}, {"measurement": "Survival of mice", "setting": "[9]; 0.125 mg/mouse", "result": 0, "unit": "%"}, {"measurement": "Survival of mice", "setting": "[9]; 0.25 mg/mouse", "result": 10, "unit": "%"}, {"measurement": "Survival of mice", "setting": "[9]; 0.5 mg/mouse", "result": 50, "unit": "%"}, {"measurement": "Survival of mice", "setting": "[9]; 1 mg/mouse", "result": 90, "unit": "%"}, {"measurement": "Survival of mice", "setting": "[9]; 2 mg/mouse", "result": 100, "unit": "%"}, {"measurement": "MIC", "setting": "[10]", "result": 0.021, "unit": "µg/mL"}, {"measurement": "MIC", "setting": "[11]", "result": 0.021, "unit": "µg/mL"}, {"measurement": "MIC", "setting": "Proteus mirabilis No. 39", "result": 0.021, "unit": "µg/mL"}, {"measurement": "MIC", "setting": "Proteus vulgaris KY 4296", "result": 0.021, "unit": "µg/mL"}, {"measurement": "MIC", "setting": "Proteus morganii Jenkins", "result": 0.04, "unit": "µg/mL"}, {"measurement": "MIC", "setting": "[12]", "result": 0.021, "unit": "µg/mL"}, {"measurement": "MIC", "setting": "Proteus vulgaris KY 4297", "result": 0.021, "unit": "µg/mL"}, {"measurement": "MIC", "setting": "[13]", "result": 0.04, "unit": "µg/mL"}, {"measurement": "MIC", "setting": "Proteus rettgeri Booth", "result": 0.021, "unit": "µg/mL"}, {"measurement": "Activity", "setting": "[14]; Example 1, purified preparate, free base", "result": 950, "unit": "unit/mg"}, {"measurement": "Activity", "setting": "[14]; Example 2, free base, Mm-628 ATCC 21827", "result": 932, "unit": "unit/mg"}, {"measurement": "Activity", "setting": "[14]; Example 3, purified preparate, free base", "result": "about 950 unit/mg"}, {"measurement": "Activity", "setting": "[14]; Example 4, free base", "result": 900, "unit": "unit/mg"}, {"measurement": "Activity", "setting": "[14]; Example 5, free base", "result": 975, "unit": "unit/mg"}, {"measurement": "Activity", "setting": "[14]; Example 6, free base, Micromonospora purpurea ATCC 15835", "result": 925, "unit": "unit/mg"}, {"measurement": "Activity", "setting": "[14]; Example 7, free base, Micromonospora echinospora ATCC 15837 NRRL 2985", "result": 898, "unit": "unit/mg"}, {"measurement": "Activity", "setting": "[14]; Example 7, free base, Micromonospora echinospora var. ferruginea NRRL 2995", "result": 912, "unit": "unit/mg"}, {"measurement": "Activity", "setting": "[14]; Example 7, free base, Micromonospora echinospora var. pallida NRRL 2996", "result": 925, "unit": "unit/mg"}, {"measurement": "Inactivation by acetylation (6'-NH2)", "setting": "[15]", "result": "free from acetylation"}]}]}
